How the values were obtained:
complement system = test: Complement activation assay (CH50)
human erythrocytes = test: Erythrocyte lysis assay; type: cell-based; details: 37° C., 1 h, citrate pH 5 versus HBS, FIG. 5
Description: The assay serves the examination of the ability of peptides to lyse natural membranes in a pH-dependent manner.
The erythrocytes used in this assay were obtained as follows: 10 ml of fresh blood were taken from volunteers and diluted immediately into 10 ml of Alsever's solution (Whaley 1985; Plank et al., 1996). Aliquots of 3 ml each were washed 3 times with the corresponding buffer (40 ml each of citrate or HBS; after addition of buffer, shaking, centrifugation at 2500×g and discarding of the supernatant). The concentration of the erythrocytes was determined with an “extinction coefficient” of 2.394×10^−8 ml/cells at 541 nm. For deriving the extinction coefficient, the cell count in an aliquot was determined using a Neubauer chamber followed by measuring the absorbance of this solution at 541 nm upon addition of 1 μl 1% Triton X-100.
Aliquots of INF7 and copolymer-coupled INF7 (P3INF7), respectively, were provided in column 1 of a 96-well plate in 150 μl 10 mM sodium citrate pH 5/150 mM NaCl and in HBS buffer, respectively (usually corresponding to […] peptide). […] Then, the plates were centrifuged at 2500×g, 150 μl each of the supernatant was transferred into a flat bottom 96-well plate and released hemoglobin was determined at 410 nm using an ELISA plate reader. […] 0% lysis was determined from untreated samples in column 12.

For GLFEAIEGFIENGWEGMIDGWYGC [INF7], the “complement activation when incorporated in a polylysine-DNA complex” value (complement system; FIG. 4B) was “this complement activation disappears”, the “complement activation (CH50 as percentage of CH50max)” value (complement system; substance itself incubated with human serum, FIG. 4) was “weak activator of complement” and the erythrocyte lysis activity (human erythrocytes) was “strong pH-dependent activity”.

From patent US20090239939A1, “Combinations for introducing nucleic acids into cells” (priority 1999, published 2009)
